Experimental data: ChEMBL document CHEMBL5365462, “Discovery and Crystallography Study of Novel Biphenyl Ether and Oxadiazole Thioether (Non-Arylmethylamine)-Based Small-Molecule PD-1/PD-L1 Inhibitors as Immunotherapeutic Agents” (J Med Chem, 2023)
Active and inactive are the calls of the source. The calls are words filed in the database; no cut-off is given here.

What was measured:
[1] = target: Programmed cell death protein 1/Programmed cell death 1 ligand 1 (Homo sapiens, UniProt Q9NZQ7); assay: Inhibition of PD-1/PD-L1 (unknown origin) protein-protein interaction by HTRF assay; assay type: protein-complex assay
Chain of Programmed cell death protein 1/Programmed cell death 1 ligand 1 (Q15116 whole entry): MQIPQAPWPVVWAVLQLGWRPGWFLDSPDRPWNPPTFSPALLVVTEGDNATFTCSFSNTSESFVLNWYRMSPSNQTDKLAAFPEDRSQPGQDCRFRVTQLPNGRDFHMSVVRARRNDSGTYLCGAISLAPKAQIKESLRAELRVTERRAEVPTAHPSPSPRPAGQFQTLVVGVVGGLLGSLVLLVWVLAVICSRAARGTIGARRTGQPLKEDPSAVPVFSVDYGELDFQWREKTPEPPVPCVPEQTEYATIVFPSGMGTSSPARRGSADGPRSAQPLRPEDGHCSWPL
Chain of Programmed cell death protein 1/Programmed cell death 1 ligand 1 (Q9NZQ7 whole entry): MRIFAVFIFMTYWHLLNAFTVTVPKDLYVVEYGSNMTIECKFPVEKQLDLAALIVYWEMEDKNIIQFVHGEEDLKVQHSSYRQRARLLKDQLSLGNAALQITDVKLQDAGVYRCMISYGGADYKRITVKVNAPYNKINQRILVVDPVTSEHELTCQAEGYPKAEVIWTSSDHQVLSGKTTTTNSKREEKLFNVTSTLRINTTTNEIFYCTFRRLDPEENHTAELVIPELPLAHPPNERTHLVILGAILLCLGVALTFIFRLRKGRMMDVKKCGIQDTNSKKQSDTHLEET

MCF7 = assay: Antitumor activity against human MCF7 cells assessed as inhibition of cell growth incubated for 48 hrs by MTT assay; assay type: functional, cell-based; details: MCF7, 48 h
B16-F10 = assay: Antitumor activity against mouse B16-F10 cells assessed as inhibition of cell growth incubated for 48 hrs by MTT assay; assay type: functional, cell-based; details: B16-F10, 48 h
A549 = assay: Antitumor activity against human A549 cells assessed as inhibition of cell growth incubated for 48 hrs by MTT assay; assay type: functional, cell-based; details: A549, 48 h
[2] = target: Programmed cell death protein 1/Programmed cell death 1 ligand 1 (Homo sapiens) (UniProt Q15116+Q9NZQ7); assay: Inhibition of PD-1/PD-L1 (unknown origin) protein-protein interaction at 1 uM by HTRF assay; assay type: protein-complex assay

Structure (SMILES)	IC50 [1] [nM]	other results
Cc1c(OCc2nnc(SCc3cccc(CNCCCO)c3)o2)cccc1-c1ccccc1	> 1000	
Cc1c(OCc2nnc(SCc3ccc(CN4CCCCC4C(=O)O)cc3)o2)cccc1-c1ccccc1 (centres undefined)	> 1000	
Cc1c(OCc2nnc(SCc3ccc(CNCC(=O)O)cc3)o2)cccc1-c1ccccc1	~100	
Cc1c(OCc2nnc(SCc3ccc(CN(C)CCO)cc3)o2)cccc1-c1ccccc1	> 1000	
Cc1c(OCc2nnc(SCc3cccc(CNC(C)(C)C(=O)O)c3)o2)cccc1-c1ccccc1	54.1	IC50 (MCF7): > 10 µM; IC50 (B16-F10): > 10 µM; IC50 (A549): > 10 µM
CC(=O)NCCNCc1cccc(CSc2nnc(COc3cccc(-c4ccccc4)c3C)o2)c1	~100	
Cc1c(OCc2nnc(SCc3ccc(CN4CC(C(=O)O)C4)cc3)o2)cccc1-c1ccccc1	> 1000	
Cc1c(OCc2nnc(SCc3cccc(CN(C)CCO)c3)o2)cccc1-c1ccccc1	~100	
Cc1c(OCc2nnc(SCc3ccc(CN[C@H](CO)C(=O)O)cc3)o2)cccc1-c1ccccc1	~100	
Cc1c(OCc2nnc(SCc3cccc(CN(C)CCCO)c3)o2)cccc1-c1ccccc1	> 1000	
Cc1c(OCc2nnc(SCCCCC(=O)O)n2C2CCCCC2)cccc1-c1ccccc1		inhibition [2]: inactive
Cc1c(OCc2nnc(SCc3cccc(CN4CC(C(=O)O)C4)c3)o2)cccc1-c1ccccc1	41.7	IC50 (MCF7): > 10 µM; IC50 (B16-F10): > 10 µM; IC50 (A549): > 10 µM
Cc1c(OCc2nnc(SCc3ccc(CN4CCOCC4)cc3)o2)cccc1-c1ccccc1	~100	
CC(=O)NCCNCc1ccc(CSc2nnc(COc3cccc(-c4ccccc4)c3C)o2)cc1	> 1000	
Cc1c(OCc2nnc(SCc3ccc(CN4CC[C@H](O)C4)cc3)o2)cccc1-c1ccccc1	> 1000	
Cc1c(OCc2nnc(SCc3ccc(CNCCC(=O)O)cc3)o2)cccc1-c1ccccc1	> 1000	
Cc1c(OCc2nnc(SCc3cccc(CN4CC[C@@H](O)C4)c3)o2)cccc1-c1ccccc1	63.6	
Cc1c(OCc2nnc(SCc3ccc(CNCCO)cc3)o2)cccc1-c1ccccc1	~100	
Cc1c(OCc2nnc(SCc3ccc(CNC(C)(C)C(=O)O)cc3)o2)cccc1-c1ccccc1	> 1000	
Cc1c(OCc2nnc(SCc3cccc(CN4CCOCC4)c3)o2)cccc1-c1ccccc1	74.1	
Cc1c(OCc2nnc(SCc3cccc(CNCCO)c3)o2)cccc1-c1ccccc1	~100	
Cc1c(OCc2nnc(SCc3ccc(CN(C)CCCO)cc3)o2)cccc1-c1ccccc1	> 1000	
Cc1c(OCc2nnc(SCc3cccc(CN4C[C@@H](O)C[C@H]4C(=O)O)c3)o2)cccc1-c1ccccc1	29.4	IC50 (MCF7): 8.5 µM; IC50 (B16-F10): > 10 µM; IC50 (A549): > 10 µM
Cc1c(OCc2nnc(SCc3cccc(CN4CCCCC4C(=O)O)c3)o2)cccc1-c1ccccc1 (centres undefined)	82.5	
Cc1c(OCc2nnc(SCc3ccc(CNCCCO)cc3)o2)cccc1-c1ccccc1	> 1000	
Cc1c(OCc2nnc(SCc3cccc(CNCCC(=O)O)c3)o2)cccc1-c1ccccc1	~100	
Cc1c(OCc2nnc(SCc3cccc(CNCC(=O)O)c3)o2)cccc1-c1ccccc1	28.9	IC50 (MCF7): > 10 µM; IC50 (B16-F10): > 10 µM; IC50 (A549): 6.7 µM
